Reference: patent US20250353891A1 (MEDIMMUNE LIMITED, priority 2022, published 2025)
pEC50: −log10 of the molar value. Starred links: 1 amine or outer side, 2 acyl side, 3 side chain; linkers in the order of their positions; H or OH if unused. Non-standard residues stand in square brackets, D forms with d. Residues, ends and D or L forms follow the SMILES beside them. Groups on a side chain read outwards from the residue. *: point of attachment. C20 diacid = O=C(O)CCCCCCCCCCCCCCCCCCC(=O)*; C18 diacid = O=C(O)CCCCCCCCCCCCCCCCC(=O)*; γGlu = O=C(O)[C@H](CCC(=O)[*:2])N[*:1]; X3 = O=C(CN(Cc1c[nH]cn1)[*:1])[*:2]; αMeF = C[C@](N)(Cc1ccccc1)C(=O)O; AEEA = NCCOCCOCC(=O)O; Aib = CC(C)(N)C(=O)O

Legend:
[1] = molecular target: human GLP-1 receptor (hGLP-1R) (Homo sapiens, UniProt P43220); assay: cAMP production (HTRF) in CHO cells expressing hGLP-1R; format: cell-based; design: expressed in transfected cells; details: for pEC50: Table 7, peptides modified at position 20, cAMP in CHO hGLP-1R cells, geometric mean, read-out: hGLP-1R EC50; for % Relative Potency Ratio: Table 7, % GLP-1R activity relative to GLP-1 / % GlucR activity relative to glucagon
In short: (§1)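 Potency values represent EC50 from 4-parameter logistic curves of HTRF % Delta F signal. Receptor-expressing CHO cells (hGCGR 2×10^5 cells/mL, hGLP-1R 1×10^5 cells/mL) were exposed for 30 min at room temperature before two-step cAMP detection.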

[2] = molecular target: human glucagon receptor (hGCGR) (Homo sapiens, UniProt P47871); assay: cAMP production (HTRF) in CHO cells expressing hGCGR; format: cell-based; design: expressed in transfected cells; details: Table 7, peptides modified at position 20; cAMP in CHO hGCGR cells; geometric mean; read-out: hGluc-R EC50
In short: as §1

Sequence of human GLP-1 receptor (hGLP-1R) (P43220 24-463): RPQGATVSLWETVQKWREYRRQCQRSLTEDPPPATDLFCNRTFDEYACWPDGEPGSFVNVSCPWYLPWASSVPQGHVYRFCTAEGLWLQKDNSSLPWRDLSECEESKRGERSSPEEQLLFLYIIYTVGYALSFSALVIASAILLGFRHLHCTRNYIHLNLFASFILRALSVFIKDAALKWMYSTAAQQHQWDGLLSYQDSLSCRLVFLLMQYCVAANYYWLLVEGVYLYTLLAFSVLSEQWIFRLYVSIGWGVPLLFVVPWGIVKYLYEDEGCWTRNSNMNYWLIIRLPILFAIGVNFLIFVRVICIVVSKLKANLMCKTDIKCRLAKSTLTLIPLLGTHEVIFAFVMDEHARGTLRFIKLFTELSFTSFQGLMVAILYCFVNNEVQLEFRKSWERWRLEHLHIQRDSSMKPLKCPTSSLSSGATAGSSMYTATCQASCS
Sequence of human glucagon receptor (hGCGR) (P47871 26-477): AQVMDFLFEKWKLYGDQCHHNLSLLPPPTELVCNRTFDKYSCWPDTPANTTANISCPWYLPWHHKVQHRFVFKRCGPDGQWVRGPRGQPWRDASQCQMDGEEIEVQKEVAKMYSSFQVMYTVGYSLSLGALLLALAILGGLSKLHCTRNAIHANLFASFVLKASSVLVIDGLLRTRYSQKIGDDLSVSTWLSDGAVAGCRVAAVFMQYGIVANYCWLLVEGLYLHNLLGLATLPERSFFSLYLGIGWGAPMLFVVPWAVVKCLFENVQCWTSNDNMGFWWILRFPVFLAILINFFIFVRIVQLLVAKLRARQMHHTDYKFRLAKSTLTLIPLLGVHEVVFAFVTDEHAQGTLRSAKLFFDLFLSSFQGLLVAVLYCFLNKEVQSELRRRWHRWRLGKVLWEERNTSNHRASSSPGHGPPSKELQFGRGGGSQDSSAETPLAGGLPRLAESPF

Structure (SMILES) | pEC50 [1] | % Relative Potency Ratio [1] | pEC50 [2]
CC[C@H](C)[C@H](NC(=O)[C@H](Cc1c[nH]c2ccccc12)NC(=O)[C@H](CCC(N)=O)NC(=O)[C@@H](NC(=O)[C@](C)(Cc1ccccc1)NC(=O)[C@H](CC(=O)O)NC(=O)[C@H](CCCCNC(=O)COCCOCCNC(=O)COCCOCCNC(=O)CC[C@H](NC(=O)CC[C@H](NC(=O)CCCCCCCCCCCCCCCCCCC(=O)O)C(=O)O)C(=O)O)NC(=O)[C@H](C)NC(=O)[C@H](C)NC(=O)[C@H](CCCNC(=N)N)NC(=O)[C@H](CO)NC(=O)[C@H](CC(=O)O)NC(=O)[C@H](CC(C)C)NC(=O)[C@](C)(Cc1ccccc1)NC(=O)[C@H](CCCCN)NC(=O)[C@H](CO)NC(=O)[C@@H](NC(=O)[C@H](CC(=O)O)NC(=O)[C@H](CO)NC(=O)[C@@H](NC(=O)[C@](C)(Cc1ccccc1)NC(=O)[C@H](CO)NC(=O)CNC(=O)[C@H](Cc1c[nH]cn1)NC(=O)[C@H](CO)NC(=O)CNCc1c[nH]cn1)[C@@H](C)O)C(C)C)C(C)C)C(=O)N[C@@H](C)C(=O)N[C@@H](CC(N)=O)C(=O)N[C@H](C(N)=O)[C@@H](C)O [Peptide 248] (H-[X3]SHGS[αMeF]TSDVSK[αMeF]LDSRAAK([AEEA-AEEA-γGlu-γGlu-C20 diacid])D[αMeF]VQWIANT-NH2; N-terminus assumed) | 8.96 | 24.6 | 7.87
CC[C@H](C)[C@H](NC(=O)[C@H](CO)NC(=O)[C@H](CCC(=O)O)NC(=O)[C@@H](NC(=O)[C@H](Cc1ccccc1)NC(=O)[C@H](CC(=O)O)NC(=O)[C@H](CCCCNC(=O)COCCOCCNC(=O)COCCOCCNC(=O)CC[C@H](NC(=O)CCCCCCCCCCCCCCCCC(=O)O)C(=O)O)NC(=O)[C@H](C)NC(=O)C(C)(C)NC(=O)[C@H](CCCNC(=N)N)NC(=O)[C@H](CO)NC(=O)[C@H](CC(=O)O)NC(=O)[C@H](CC(C)C)NC(=O)[C@](C)(Cc1ccccc1)NC(=O)[C@H](CCCCN)NC(=O)[C@H](CO)NC(=O)[C@@H](NC(=O)[C@H](CC(=O)O)NC(=O)[C@H](CO)NC(=O)[C@@H](NC(=O)[C@](C)(Cc1ccccc1)NC(=O)[C@H](CO)NC(=O)CNC(=O)[C@H](Cc1c[nH]cn1)NC(=O)C(C)(C)NC(=O)[C@@H](N)Cc1c[nH]cn1)[C@@H](C)O)C(C)C)C(C)C)C(=O)N[C@@H](C)C(=O)N[C@@H](CC(N)=O)C(=O)N[C@H](C(N)=O)[C@@H](C)O [Peptide 251] (H-H[Aib]HGS[αMeF]TSDVSK[αMeF]LDSR[Aib]AK([AEEA-AEEA-γGlu-C18 diacid])DFVESIANT-NH2; N-terminus assumed) | 10.10 | 6.2 | 9.61
CC[C@H](C)[C@H](NC(=O)[C@H](CO)NC(=O)[C@H](CCC(=O)O)NC(=O)[C@@H](NC(=O)[C@H](Cc1ccccc1)NC(=O)[C@H](CC(=O)O)NC(=O)[C@H](CCCCNC(=O)COCCOCCNC(=O)CC[C@H](NC(=O)CCCCCCCCCCCCCCCCC(=O)O)C(=O)O)NC(=O)[C@H](C)NC(=O)C(C)(C)NC(=O)[C@H](CCCNC(=N)N)NC(=O)[C@H](CO)NC(=O)[C@H](CC(=O)O)NC(=O)[C@H](CC(C)C)NC(=O)[C@](C)(Cc1ccccc1)NC(=O)[C@H](CCCCN)NC(=O)[C@H](CO)NC(=O)[C@@H](NC(=O)[C@H](CC(=O)O)NC(=O)[C@H](CO)NC(=O)[C@@H](NC(=O)[C@](C)(Cc1ccccc1)NC(=O)[C@H](CO)NC(=O)CNC(=O)[C@H](Cc1c[nH]cn1)NC(=O)C(C)(C)NC(=O)[C@@H](N)Cc1c[nH]cn1)[C@@H](C)O)C(C)C)C(C)C)C(=O)N[C@@H](C)C(=O)N[C@@H](CC(N)=O)C(=O)N[C@H](C(N)=O)[C@@H](C)O [Peptide 253] (H-H[Aib]HGS[αMeF]TSDVSK[αMeF]LDSR[Aib]AK([AEEA-γGlu-C18 diacid])DFVESIANT-NH2) | 10.12 | 1.4 | 10.27
CC[C@H](C)[C@H](NC(=O)[C@H](CO)NC(=O)[C@H](CCC(=O)O)NC(=O)[C@@H](NC(=O)[C@H](Cc1ccccc1)NC(=O)[C@H](CC(=O)O)NC(=O)[C@H](CCCCNC(=O)CC[C@H](NC(=O)CCCCCCCCCCCCCCCCC(=O)O)C(=O)O)NC(=O)[C@H](C)NC(=O)C(C)(C)NC(=O)[C@H](CCCNC(=N)N)NC(=O)[C@H](CO)NC(=O)[C@H](CC(=O)O)NC(=O)[C@H](CC(C)C)NC(=O)[C@](C)(Cc1ccccc1)NC(=O)[C@H](CCCCN)NC(=O)[C@H](CO)NC(=O)[C@@H](NC(=O)[C@H](CC(=O)O)NC(=O)[C@H](CO)NC(=O)[C@@H](NC(=O)[C@](C)(Cc1ccccc1)NC(=O)[C@H](CO)NC(=O)CNC(=O)[C@H](Cc1c[nH]cn1)NC(=O)C(C)(C)NC(=O)[C@@H](N)Cc1c[nH]cn1)[C@@H](C)O)C(C)C)C(C)C)C(=O)N[C@@H](C)C(=O)N[C@@H](CC(N)=O)C(=O)N[C@H](C(N)=O)[C@@H](C)O [Peptide 254] (H-H[Aib]HGS[αMeF]TSDVSK[αMeF]LDSR[Aib]AK([γGlu-C18 diacid])DFVESIANT-NH2) | 9.99 | 2.4 | 9.90

Other lines, results leading:

pEC50 [1] | % Relative Potency Ratio [1] | pEC50 [2] | Structure (SMILES)
9.49 | 3.4 | 9.25 | CC[C@H](C)[C@H](NC(=O)[C@H](CO)NC(=O)[C@H](CCC(=O)O)NC(=O)[C@@H](NC(=O)[C@](C)(Cc1ccccc1)NC(=O)[C@H](CC(=O)O)NC(=O)[C@H](CCCCNC(=O)COCCOCCNC(=O)COCCOCCNC(=O)CC[C@H](NC(=O)CC[C@H](NC(=O)CCCCCCCCCCCCCCCCCCC(=O)O)C(=O)O)C(=O)O)NC(=O)[C@H](C)NC(=O)[C@H](C)NC(=O)[C@H](CCCNC(=N)N)NC(=O)[C@H](CO)NC(=O)[C@H](CC(=O)O)NC(=O)[C@H](CC(C)C)NC(=O)[C@](C)(Cc1ccccc1)NC(=O)[C@H](CCCCN)NC(=O)[C@H](CO)NC(=O)[C@@H](NC(=O)[C@H](CC(=O)O)NC(=O)[C@H](CO)NC(=O)[C@@H](NC(=O)[C@](C)(Cc1ccccc1)NC(=O)[C@H](CO)NC(=O)CNC(=O)[C@H](Cc1c[nH]cn1)NC(=O)C(C)(C)NC(=O)[C@@H](N)Cc1c[nH]cn1)[C@@H](C)O)C(C)C)C(C)C)C(=O)N[C@@H](C)C(=O)N[C@@H](CC(N)=O)C(=O)N[C@H](C(N)=O)[C@@H](C)O [Peptide 246] (H-H[Aib]HGS[αMeF]TSDVSK[αMeF]LDSRAAK([AEEA-AEEA-γGlu-γGlu-C20 diacid])D[αMeF]VESIANT-NH2)
9.25 | 1.9 | 9.26 | CC[C@H](C)[C@H](NC(=O)[C@H](CO)NC(=O)[C@H](CCC(=O)O)NC(=O)[C@@H](NC(=O)[C@](C)(Cc1ccccc1)NC(=O)[C@H](CC(=O)O)NC(=O)[C@H](CCCCNC(=O)COCCOCCNC(=O)COCCOCCNC(=O)CC[C@H](NC(=O)CC[C@H](NC(=O)CCCCCCCCCCCCCCCCCCC(=O)O)C(=O)O)C(=O)O)NC(=O)[C@H](C)NC(=O)C(C)(C)NC(=O)[C@H](CCCNC(=N)N)NC(=O)[C@H](CO)NC(=O)[C@H](CC(=O)O)NC(=O)[C@H](CC(C)C)NC(=O)[C@](C)(Cc1ccccc1)NC(=O)[C@H](CCCCN)NC(=O)[C@H](CO)NC(=O)[C@@H](NC(=O)[C@H](CC(=O)O)NC(=O)[C@H](CO)NC(=O)[C@@H](NC(=O)[C@](C)(Cc1ccccc1)NC(=O)[C@H](CO)NC(=O)CNC(=O)[C@H](Cc1c[nH]cn1)NC(=O)C(C)(C)NC(=O)[C@@H](N)Cc1c[nH]cn1)[C@@H](C)O)C(C)C)C(C)C)C(=O)N[C@@H](C)C(=O)N[C@@H](CC(N)=O)C(=O)N[C@H](C(N)=O)[C@@H](C)O [Peptide 249] (H-H[Aib]HGS[αMeF]TSDVSK[αMeF]LDSR[Aib]AK([AEEA-AEEA-γGlu-γGlu-C20 diacid])D[αMeF]VESIANT-NH2)
9.22 | 5.2 | 8.81 | CC[C@H](C)[C@H](NC(=O)[C@H](CO)NC(=O)[C@H](CCC(=O)O)NC(=O)[C@@H](NC(=O)[C@](C)(Cc1ccccc1)NC(=O)[C@H](CC(=O)O)NC(=O)[C@H](CCCCNC(=O)COCCOCCNC(=O)COCCOCCNC(=O)CC[C@H](NC(=O)CC[C@H](NC(=O)CCCCCCCCCCCCCCCCC(=O)O)C(=O)O)C(=O)O)NC(=O)[C@H](C)NC(=O)C(C)(C)NC(=O)[C@H](CCCNC(=N)N)NC(=O)[C@H](CO)NC(=O)[C@H](CC(=O)O)NC(=O)[C@H](CC(C)C)NC(=O)[C@](C)(Cc1ccccc1)NC(=O)[C@H](CCCCN)NC(=O)[C@H](CO)NC(=O)[C@@H](NC(=O)[C@H](CC(=O)O)NC(=O)[C@H](CO)NC(=O)[C@@H](NC(=O)[C@](C)(Cc1ccccc1)NC(=O)[C@H](CO)NC(=O)CNC(=O)[C@H](Cc1c[nH]cn1)NC(=O)C(C)(C)NC(=O)[C@@H](N)Cc1c[nH]cn1)[C@@H](C)O)C(C)C)C(C)C)C(=O)N[C@@H](C)C(=O)N[C@@H](CC(N)=O)C(=O)N[C@H](C(N)=O)[C@@H](C)O [Peptide 250] (H-H[Aib]HGS[αMeF]TSDVSK[αMeF]LDSR[Aib]AK([AEEA-AEEA-γGlu-γGlu-C18 diacid])D[αMeF]VESIANT-NH2)
9.92 | 21.7 | 8.88 | CC[C@H](C)[C@H](NC(=O)[C@H](CO)NC(=O)[C@H](CCC(=O)O)NC(=O)[C@@H](NC(=O)[C@H](Cc1ccccc1)NC(=O)[C@H](CC(=O)O)NC(=O)[C@H](CCCCNC(=O)COCCOCCNC(=O)COCCOCCNC(=O)CC[C@H](NC(=O)CCCCCCCCCCCCCCCCCCC(=O)O)C(=O)O)NC(=O)[C@H](C)NC(=O)C(C)(C)NC(=O)[C@H](CCCNC(=N)N)NC(=O)[C@H](CO)NC(=O)[C@H](CC(=O)O)NC(=O)[C@H](CC(C)C)NC(=O)[C@](C)(Cc1ccccc1)NC(=O)[C@H](CCCCN)NC(=O)[C@H](CO)NC(=O)[C@@H](NC(=O)[C@H](CC(=O)O)NC(=O)[C@H](CO)NC(=O)[C@@H](NC(=O)[C@](C)(Cc1ccccc1)NC(=O)[C@H](CO)NC(=O)CNC(=O)[C@H](Cc1c[nH]cn1)NC(=O)C(C)(C)NC(=O)[C@@H](N)Cc1c[nH]cn1)[C@@H](C)O)C(C)C)C(C)C)C(=O)N[C@@H](C)C(=O)N[C@@H](CC(N)=O)C(=O)N[C@H](C(N)=O)[C@@H](C)O [Peptide 252] (H-H[Aib]HGS[αMeF]TSDVSK[αMeF]LDSR[Aib]AK([AEEA-AEEA-γGlu-C20 diacid])DFVESIANT-NH2)
